In patent US5280027A, “Anti-tumor compounds” (Imperial Chemical Industries PLC, priority 1990, dated 1994):
Where two headings read alike, the source gives them in different places.

What was measured:
[1] = tested on: human breast, ovarian and liver cancer; conditions: clinical; cited from earlier work
[2] = cited from earlier work
thymidylate synthase = molecular target: T1, thymidylate synthase (Mus musculus, UniProt P07607); assay: Test (a): in vitro inhibition of the enzyme thymidylate synthase (partially purified from L1210 mouse leukaemia cells); format: biochemical
T1 construct: obtained in partially purified form from L1210 mouse leukaemia cells; endogenous in cells; host or cells: L1210 mouse leukaemia cells (enzyme partially purified)
T1 sequence (P07607 whole entry): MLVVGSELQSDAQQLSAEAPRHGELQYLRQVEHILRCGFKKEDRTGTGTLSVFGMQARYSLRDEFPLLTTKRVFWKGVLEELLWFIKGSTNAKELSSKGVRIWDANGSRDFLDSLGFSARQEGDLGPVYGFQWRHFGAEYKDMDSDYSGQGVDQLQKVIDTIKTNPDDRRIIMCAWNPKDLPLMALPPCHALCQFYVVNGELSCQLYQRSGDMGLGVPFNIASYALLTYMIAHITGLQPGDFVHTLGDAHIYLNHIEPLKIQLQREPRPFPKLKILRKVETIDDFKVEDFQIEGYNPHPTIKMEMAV
Text: (a) An in vitro assay which determines the ability of a test compound to inhibit the enzyme thymidylate synthase. Thymidylate synthase was obtained in partially purified form from L1210 mouse leukaemia cells and utilised using the procedures described by Jackman et al. (Cancer Res., 1986, 46, 2810 and Sikora et al., Biochem. Pharmacol. 1988, 37, 4047);

L1210 cell line = assay: Test (b): inhibition of growth of the leukaemia cell line L1210 in cell culture; format: cell-based; conditions: Mus musculus
Text: (b) An assay which determines the ability of a test compound to inhibit the growth of the leukaemia cell line L1210 in cell culture. The test is similar to that described in UK Patent Specification No. 2065653B and has been described by Jones et al., J. Med. Chem., 1985, 28, 1468;

MCF-7 cell line = assay: Test (c): inhibition of growth of the human breast cancer cell line MCF-7 in cell culture; format: cell-based; conditions: MCF7, MCF-7 growth
Text: (c) An assay which determines the ability of a test compound to inhibit the growth of the human breast cancer cell line MCF-7 in cell culture. The test is similar to that described by Lippman et al. (Cancer Res., 1976, 36, 4595); and […]

[3] = Test (a), thymidylate synthase, read-out: IC50

Structure (SMILES)	activity against human breast, ovarian and liver cancer [1]	toxicity in humans, particularly in relation to the liver and kidney [2]	IC50 (thymidylate synthase; [3]) [nM]	IC50 (L1210 cell line) [nM]	IC50 (MCF-7 cell line) [nM]	IC50 (thymidylate synthase) [nM]
C#CCN(Cc1ccc2nc(N)[nH]c(=O)c2c1)c1ccc(C(=O)N[C@@H](CCC(=O)O)C(=O)O)cc1 [CB3717]	promising activity	symptoms of toxicity in humans, particularly in relation to the liver and kidney	–	–	–	–
C#CCN(Cc1ccc2nc(C)[nH]c(=O)c2c1)c1ccc(C(=O)NC(c2ccccc2)c2ccccc2)cc1 [Example 7, N-diphenylmethyl-p-[N-(2-methyl-4-oxo-3,4-dihydroquinazolin-6-ylmethyl)-N-(prop-2-ynyl)amino]benzamide]	–	–	~2000	~7000	~1500	–
C#CCN(Cc1ccc2nc(C)[nH]c(=O)c2c1)c1ccc(C(=O)NC(C(=O)NS(=O)(=O)c2ccc(OC)cc2)c2cccc([N+](=O)[O-])c2)cc1 (centres unmarked) [Example 10, N-[p-[N-(2-methyl-4-oxo-3,4-dihydroquinazolin-6-ylmethyl)-N-(prop-2-ynyl)amino]benzoyl]-(3-nitrophenyl)glycine N-(4-methoxyphenylsulphonyl)amide]	–	–	–	~25000	~1000	~10
C#CCN(Cc1cc2c(=O)[nH]c(C)nc2cc1C)c1ccc(C(=O)NC(CO)c2cccc([N+](=O)[O-])c2)cc1 (centres unmarked) [Example 14, compound no. 2, p-[N-(2,7-dimethyl-4-oxo-3,4-dihydroquinazolin-6-ylmethyl)-N-(prop-2-ynyl)amino]-N-[2-hydroxy-1-(3-nitrophenyl)ethyl]benzamide]	–	–	~20	~3400	~100	–
